Reference: patent US20070197562A1, “Remedies for prostatic hypertrophy” (Yokohama TLO Company, Ltd., priority 2004, published 2007)

Tests used:
Format in all cases: cell-based, human
[1] = system: PrSC cells; experiment: IL-6 secretion by PrSC cells (CLEIA); settings: 24 hours
Description: (§1) PrSC cells prepared in the same manner as Example 1, or F-1 or FT-FB cells prepared as described above were placed in a 6-well dish at 10^5 cells per well, cultured at 5% CO2 and 37° C. for 1 day (24 hours), and stimulated by the addition of TGFβ (1 ng/mL), TNFα (1 ng/mL), EGF (2.5 or 10 ng/mL), or angiotensin II (1 μM or 10 μM) (n=3). CV was added as the AIIR blocker to some wells 4 hours before adding the reagents. The culture media were collected 24 hours after adding the reagents, and the concentrations of IL-6 were determined by the CLEIA method.

[2] = system: PrSC cells; experiment: Proliferation of PrSC cells stimulated with angiotensin II, TGFβ or EGF (cell count, Examples 1-3); settings: 5 days
Description: A Cell Line Derived from Normal Human Prostatic stromal cells, i.e., PrSC cells, was purchased from Sanko Junyaku Co. Ltd. (Normal Human Prostate Stromal Cells, catalogue number CC-2508), and maintained by subculturing them in a phenol red-free RPMI medium under conditions of 5% CO2 and 37° C.
The PrSC cells (10^4 cells) were placed in a 12-well dish, and cultured in a phenol red-free medium containing 0.1% (W/V) BSA under conditions of 5% CO2 and 37° C. for several days. Then, 1 μM or 10 μM of angiotensin II was added. To some wells, CV (10 μM; hereinafter CV was used at this concentration unless otherwise noted) was added as an AIIR blocker 4 hours before adding angiotensin II. Each group contained four wells (n=4). After culturing the cells at 5% CO2 and 37° C. for 5 days, the number of all cells in each of the wells was counted.
The effect of an AIIR blocker was examined in the same manner as Example 1, except for that 10 ng/mL of TGFβ was used in place of angiotensin II.
The effect of an AIIR blocker was examined in the same manner as Example 1, except for that 10 ng/mL of EGF was used in place of angiotensin II.

[3] = system: PrSC cells; experiment: Telmisartan: proliferation of EGF- or TNFα-stimulated PrSC cells (Example 7); settings: 5 days, P<0.01
Description: (§2) PrSC cells were plated out on a 12-well dish at 25,000 cells per well, and cultured for 5 days in a phenol red-free F12 culture medium supplemented with 0.1% (W/V) BSA containing EGF (10 ng/mL) or TNFα (1 ng/mL), each alone or in combination with telmisartan (50 μM). Then the number of cells was counted. The group with no additive was used as the control group. Each group contained four wells (n=4).

[4] = system: MAPK phosphorylation in PrSC cells; experiment: MAPK phosphorylation in PrSC cells (Western blotting)
Description: Stromal cells (PrSC) were cultured for 24 hours in a phenol red-free F12 medium containing 0.1% (W/V) BSA, to which angiotensin II (10 μM) or TNFα (1 ng/mL) was added each alone or in combination with either CV (10 μM) or losartan (“Los”; 10 μM) by replacing the medium. The cells were collected 10 minutes after the addition, and the total cellular proteins were extracted in the same manner as described in Example 10. Similarly, the cells cultured with no additive and the cells added with either CV or Los alone were processed in parallel. 3,000,000 PrSC cells were used for each sample.
These samples were subjected to Western blotting in the same manner as described in Example 10.

[5] = system: F-1 cells; experiment: IL-6 secretion by primary-cultured F-1 cells (CLEIA); settings: angiotensin II 1 μM and 10 μM alone; 24 hours
Description: The primary-cultured stromal cells (F-1 cells) derived from a patient with prostatic hypertrophy were prepared as described below.
Tissues obtained from the patient were placed in a 50 mL centrifuge tube containing 20 mL of a medium (RPMI 1640, GIBCO 11835-030) supplemented with 10% (V/V) FBS (filtron) and mg/mL penicillin/streptomycin (GIBCO 15140-122), and allowed to stand at 4° C. for 1 hour or longer. Subsequently, the tissues were placed in a 10-cm dish, and cut into pieces of about 1 mm square. Blood vessels and the like were removed. At that time, to remove excessive blood (if necessary), the tissues were washed by adding 20 mL of the medium and centrifuging the mixture for 5 minutes at 1,000 rpm, followed by aspiration of the supernatant. […]
as §1, with “CV was added as the AIIR blocker to some wells 4 hours before adding the reagents.” left out

[6] = system: MAPK phosphorylation in PC-3 cells; experiment: MAPK phosphorylation in PC-3 cells cultured in PrSC conditioned media (Western blotting)
Description: Stromal cells (PrSC) were cultured in a phenol red-free F12 medium containing 0.1% (W/V) BSA, to which angiotensin II (10 μM) was added alone or in combination with losartan (“Los”; 10 μM). The culture medium was collected 24 hours after the addition, and used as a conditioned medium (“0.1% BSA-CM”).
Stromal cells (PrSC) were cultured in a phenol red-free F12 medium containing 10% (V/V) FCS, to which CV (10 μM) or losartan (10 μM) was added. The culture medium was collected 24 hours after the addition, and used as a conditioned medium (“10% FCS-CM”) with no addition of angiotensin II. 10% FCS-CM with no additive was also prepared in the same manner.
3,000,000 PrSC cells were used for each of the above 10-1 and 10-2
PC3 cells (prostate cancer cells) were cultured for 24 hours in a phenol red-free F12 medium supplemented with 0.1% (W/V) BSA. Then the medium was replaced with one of the conditioned media prepared as described above, and the cells were collected 10 minutes later. Total cellular proteins were extracted as described below. Similar protocol was done in parallel for PC-3 cells without using any conditioned medium (“Control”).
The cells were washed twice with an ice-cold phosphate buffer (PBS), and lysed in 200 μL of an ice-cold cell lysis solution (lysis buffer; 20 mM of Tris (pH8.0), 137 mM of NaCl, 10% of glycerol, 0.1% of SDS, 0.5% of Nonidet P-40 (trade name), 100 mM of sodium fluoride, […] of sodium orthovanadate, 1 mM of EGTA, 2 mM of phenylmethylsulfonyl fluoride, […] of leupeptin, and […] of aprotinin). The mixture was centrifuged. Subsequently, the supernatant was collected.
The resulting protein sample was subjected to SDS-PAGE in the routine manner, and the MAPK phosphorylation was determined by Western blotting using an anti-phospho-MAP kinase antibody or an anti-MAP kinase antibody) (both were purchased from Cell Signaling Technology (Beverly, Mass.)) as the detecting antibody.
From the obtained results, the expression levels of pMAPK and MAPK bands were determined using NIH image software. On the basis of the results, the pMAPK/MAPK ratio in each lane was calculated, and then the ratio (“pMAPK ratio”) of the obtained value of each lane to that of the lane 1 (“Control”) was calculated by taking the value of Control as 1.

[7] = system: PrSC cells; experiment: Losartan: proliferation of TNFα-stimulated PrSC cells (Example 9); settings: 5 days
Description: as §2, with “containing” for “containing EGF (10 ng/mL) or”, “ng/mL) and/or losartan (10” for “ng/mL), each alone or in combination with telmisartan (50”

[8] = system: PrSC cells; experiment: Losartan: proliferation of PrSC cells in 10% FCS (Example 8); settings: 5 days
Description: PrSC cells were plated out on a 12-well dish at 20,000 cells per well, and cultured for 5 days in a phenol red-free F12 culture medium containing 10% (V/V) FCS and losartan at various concentrations (0, 0.1, 1.0, and 10 μM). Then the number of cells was counted. The group with no additive was used as the control group. Each group contained four wells (n=4).

[9] = system: PrSC cells; experiment: Olmesartan: proliferation of TNFα-stimulated PrSC cells (Example 6); settings: TNFα (1 ng/mL) alone; 5 days; P<0.01
Description: as §2, with “20,000” for “25,000”, “containing” for “containing EGF (10 ng/mL) or”, “ng/mL)” for “ng/mL), each”, “olmesartan (1” for “telmisartan (50”

In the case of “EGF: growth factor used to stimulate cells (NSDSECPLSHDGYCLHDGVCMYIEALDKYACNCVVGYIGERCQYRDLKWWELR; Epidermal growth factor; UniProt P01133 971-1023, looked up)”, the “IL-6 secretion vs control” value ([1]; EGF 2.5 and 10 ng/mL alone) is reported as “dose-dependent increase”, the “number of cells vs control” value ([2]; EGF 10 ng/mL alone) is reported as “significant increase” and the “number of cells vs control” value ([3]; EGF (10 ng/mL) alone) is reported as “significantly increased”.
“angiotensin II (DRVYIHPF; Angiotensin-2; UniProt P01019 25-32, looked up) [stimulant added to cells]” was tested, and the “MAPK phosphorylation in PrSC cells” value ([4]; angiotensin II (10 μM) alone, lane 2) was “strongly activated”, the “IL-6 secretion vs control” value [5] was “significant increase in a concentration-dependent manner” and the “numbers of cells vs control” value ([2]; angiotensin II 1 μM or 10 μM alone) was “concentration-dependent increase”. The “MAPK phosphorylation in PC-3 cells” value ([6]; 0.1% BSA-CM from PrSC with angiotensin II (10 μM) alone, lane 2) was “caused”.
With TGFβ the “IL-6 secretion vs control” value ([1]; TGFβ (1 ng/mL) alone) was “significantly promoted” and the “number of cells, increase vs control” value ([2]; TGFβ 10 ng/mL alone) was “more than 2 fold”.
For CCCCc1nc(Cl)c(CO)n1Cc1ccc(-c2ccccc2-c2nn[nH]n2)cc1 [losartan], the “MAPK phosphorylation in PrSC cells” value ([4]; AIIR blocker 10 μM added alone, lanes 8 and 9) was “not caused”, the “MAPK phosphorylation in PrSC cells” value ([4]; TNFα (1 ng/mL) in combination with AIIR blocker 10 μM, lanes 6 and 7, 10 minutes) was “suppressed” and the “MAPK phosphorylation in PrSC cells” value ([4]; angiotensin II (10 μM) in combination with AIIR blocker 10 μM, lanes 3 and 4, 10 minutes) was “suppressed”. For the same molecule, the “increase in the number of cells” value ([7]; TNFα (1 ng/mL)+losartan (10 μM), P<0.02) was “significantly suppressed”, the “cell proliferation vs control” value ([7]; losartan (10 μM) alone) was “showed no change” and the “cell proliferation, difference from control” value ([8]; losartan 10 μM, P<0.05) was “significant difference”. For the same molecule, the “cell proliferation vs control” value ([8]; losartan 0.1, 1.0 and 10 μM) was “dose-dependently suppressed”, the “MAPK phosphorylation in PC-3 cells” value ([6]; 0.1% BSA-CM from PrSC with angiotensin II (10 μM)+losartan (10 μM), lane 3 vs lane 2, 10 minutes) was “suppressed” and the “MAPK phosphorylation in PC-3 cells” value ([6]; 10% FCS-CM from PrSC with AIIR blocker 10 μM, no angiotensin II, lanes 5 and 6 vs lane 4, 10 minutes) was “suppressed”.
With CCCc1nc2c(C)cc(-c3nc4ccccc4n3C)cc2n1Cc1ccc(-c2ccccc2C(=O)O)cc1 [telmisartan, 4′-{[4-methyl-6-(1-methyl-2-benzimidazolyl)-2-propyl-1-benzimidazolyl]methyl}-2-biphenylcarboxylic acid] the “increase in the number of cells” value ([3]; EGF (10 ng/mL)+telmisartan (50 μM)) was “significantly suppressed” and the “increase in the number of cells” value ([3]; TNFα (1 ng/mL)+telmisartan (50 μM)) was “significantly suppressed”.
In the case of TNFα, the “MAPK phosphorylation in PrSC cells” value ([4]; TNFα (1 ng/mL) alone, lane 5) is reported as “strongly activated”, the “IL-6 secretion vs control” value ([1]; TNFα (1 ng/mL) alone) is reported as “significantly promoted” and the “number of cells vs control” value ([7]; TNFα (1 ng/mL) alone, P<0.05) is reported as “significantly increased”. The “number of cells vs control” value [9] was “significantly increased” and the “number of cells vs control” value ([3]; TNFα (1 ng/mL) alone) was “significantly increased”.
